The source made the active and inactive calls. No cut-off for these calls is given here. Numbered stars: 1 amine (or outer) side, 2 acyl side, 3 side chain; on linkers, the order of the positions; unused ones are H or OH. Bridge positions count the residues as written; N and C are the ends. Square brackets hold non-standard residues; d marks the D form. Peptide text beside a SMILES is read from it. * marks the point of attachment. X2 = NCCCC[C@H](N[*:1])C(=O)NC(=O)COCC(=O)[*:2]; X1 = O=C(COCC(=O)*)Nc1ccc(CCC(=O)N2CCC2=O)cc1; X3 = O=C(CCc1ccc(N*)cc1)N1CCC1=O; NMeE = CN[C@@H](CCC(=O)O)C(=O)O; Aib = CC(C)(N)C(=O)O
Tests used:
Placenta growth factor [1] = target: T1, Placenta growth factor (Homo sapiens, UniProt P49763); assay: Inhibition of human PlGF-1-VEGFR-1 interaction by ELISA
T1 sequence (P49763 whole entry): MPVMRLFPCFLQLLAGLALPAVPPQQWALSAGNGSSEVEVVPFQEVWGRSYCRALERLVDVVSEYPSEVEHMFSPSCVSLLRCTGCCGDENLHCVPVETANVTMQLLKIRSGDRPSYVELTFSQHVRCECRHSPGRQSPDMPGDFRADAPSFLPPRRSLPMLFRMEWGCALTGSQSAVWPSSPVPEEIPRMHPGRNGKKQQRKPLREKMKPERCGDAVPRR

Placenta growth factor [2] = target: T1, Placenta growth factor; assay: Binding affinity to human PlGF-1; settings: read-out: Kd
[3] = Terminal half life in Swiss Webster mouse at 10 mg/kg, iv; assay type: ADME, organism-based; set-up: dose 10 mg/kg, route intravenous; settings: in vivo, read-out: beta t1/2 (converted)
Placenta growth factor [4] = target: T2, Placenta growth factor (Mus musculus, UniProt P49764); assay: (§1) Inhibition of mouse PlGF-VEGFR-1 interaction by ELISA
T2 sequence (P49764 whole entry): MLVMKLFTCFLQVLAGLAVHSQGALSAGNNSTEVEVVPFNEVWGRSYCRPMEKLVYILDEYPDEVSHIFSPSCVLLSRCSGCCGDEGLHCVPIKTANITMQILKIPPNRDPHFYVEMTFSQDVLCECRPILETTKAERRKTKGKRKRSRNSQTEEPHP

[5] = target: T3, Placenta growth factor (Homo sapiens) (UniProt P49763); assay: Binding affinity to human PlGF-2 by surface plasmon resonance study
T3 sequence (whole entry): T1 sequence (P49763 whole entry)

[6] = target: T3, Placenta growth factor (Homo sapiens); assay: Binding affinity to human PlGF-1 by surface plasmon resonance study
[7] = Stability in Swiss Webster mouse serum assessed as functional compound remaining after 6 hrs; assay type: ADME, cell-free; settings: read-out: Stability
[8] = Terminal half life in cynomolgus monkey at 10 mg/kg, iv; assay type: ADME, organism-based, Macaca fascicularis; set-up: dose 10 mg/kg, route intravenous; settings: in vivo, read-out: beta t1/2 (converted)
[9] = Stability of the compound in presence of cathepsin B; assay type: ADME
Placenta growth factor [10] = target: T1, Placenta growth factor; assay: Binding affinity to human PlGF-2
Placenta growth factor [11] = target: T2, Placenta growth factor; assay: Binding affinity to mouse PlGF
[12] = target: T4, Placenta growth factor (Mus musculus) (UniProt P49764); assay: as §1
T4 sequence (whole entry): T2 sequence (P49764 whole entry)

[13] = target: T4, Placenta growth factor (Mus musculus); assay: Inhibition of mouse PlGF interaction with human VEGFR-1 by ELISA
Placenta growth factor [14] = target: T1, Placenta growth factor; assay: Inhibition of human PlGF-2-VEGFR-1 interaction by ELISA

IC50 (Placenta growth factor [1]) [nM]	Kd (Placenta growth factor [2]) [nM]	half-life [3] [h]	IC50 (Placenta growth factor [4]) [nM]	remaining at 6 h [7] [%]	Kd (Placenta growth factor [10]) [nM]	Kd (Placenta growth factor [11]) [nM]	SMILES	other results
3	8	24	–	–	–	–	CC[C@H](C)[C@@H]1NC(=O)[C@H](Cc2ccc(O)cc2)NC(=O)[C@H](Cc2cnc[nH]2)NC(=O)[C@@H](NC(=O)[C@@H](NC(=O)[C@H](CCC(=O)O)N(C)C(=O)[C@H](Cc2ccccc2)NC(=O)[C@H](C)NC(=O)[C@H](C)NC(=O)[C@H](CC(=O)O)NC(=O)[C@H](C)NC(C)=O)C(C)C)CSSC[C@@H](C(=O)N[C@H](C(=O)N[C@@H](CCCNC(=N)N)C(=O)N[C@@H](Cc2ccc(O)cc2)C(N)=O)[C@@H](C)O)NC(=O)[C@H](Cc2cnc[nH]2)NC(=O)[C@@H]2CCCN2C(=O)[C@H](CC(C)C)NC(=O)[C@H](CCCCNC(=O)COCC(=O)Nc2ccc(CCC(=O)N3CCC3=O)cc2)NC1=O (Ac-ADAAF[NMeE]VCHYIK(X1)LPHCTRY-NH2; disulfide 8-16)	–
4	5	–	4	< 5	–	–	CSCC[C@H](NC(=O)[C@H](CCCCNC(=O)COCC(=O)Nc1ccc(CCC(=O)N2CCC2=O)cc1)NC(=O)[C@H](CCCCNC(C)=O)NC(=O)[C@@H]1CSSC[C@H](NC(=O)[C@@H](NC(=O)[C@H](CC(=O)O)NC(=O)[C@H](Cc2ccccc2)NC(C)=O)C(C)C)C(=O)N[C@@H](CC(N)=O)C(=O)N[C@@H](Cc2c[nH]c3ccccc23)C(=O)N[C@@H](C(C)C)C(=O)N[C@@H]([C@@H](C)O)C(=O)N[C@@H](CC(C)C)C(=O)N2CCC[C@H]2C(=O)N[C@@H](Cc2cnc[nH]2)C(=O)N1)C(N)=O (Ac-FDVCNWVTLPHCK(Ac)K(X1)M-NH2; disulfide 4-12)	Activity [5]: Active; Activity [6]: Active
0.4	0.1	75	–	–	9	70	CC[C@H](C)[C@@H]1NC(=O)[C@H](Cc2ccc(O)cc2)NC(=O)[C@H](Cc2cnc[nH]2)NC(=O)[C@@H](NC(=O)[C@@H](NC(=O)[C@H](CCC(=O)O)N(C)C(=O)[C@H](Cc2ccccc2)NC(=O)[C@H](C)NC(=O)[C@H](C)NC(=O)[C@H](CC(=O)O)NC(=O)[C@H](C)NC(C)=O)C(C)C)CSSC[C@@H](C(=O)N[C@H](C(=O)N[C@@H](CCCCNC(C)=O)C(=O)NC(C)(C)C(N)=O)[C@@H](C)O)NC(=O)[C@H](Cc2cnc[nH]2)NC(=O)C(C)(C)NC(=O)[C@H](CC(C)C)NC(=O)[C@H](CCCCNC(=O)COCC(=O)Nc2ccc(CCC(=O)N3CCC3=O)cc2)NC1=O (Ac-ADAAF[NMeE]VCHYIK(X1)L[Aib]HCTK(Ac)[Aib]-NH2; disulfide 8-16)	half-life [8]: 78 h; Stability [9]: Stable
1	0.3	14	–	–	–	–	CC[C@H](C)[C@@H]1NC(=O)[C@H](Cc2ccc(O)cc2)NC(=O)[C@H](Cc2cnc[nH]2)NC(=O)[C@@H](NC(=O)[C@@H](NC(=O)[C@H](CCC(=O)O)NC(=O)[C@H](Cc2ccccc2)NC(=O)[C@H](C)NC(=O)[C@H](C)NC(=O)[C@H](CC(=O)O)NC(C)=O)C(C)C)CSSC[C@@H](C(=O)N[C@H](C(=O)N[C@@H](CCCN=C(N)N)C(=O)N[C@@H](Cc2ccc(O)cc2)C(N)=O)[C@@H](C)O)NC(=O)[C@H](Cc2cnc[nH]2)NC(=O)[C@@H]2CCCN2C(=O)[C@H](CC(C)C)NC(=O)[C@H](CCCCNC(=O)COCC(=O)Nc2ccc(CCC(=O)N3CCC3=O)cc2)NC1=O (Ac-DAAFEVCHYIK(X1)LPHCTRY-NH2; disulfide 7-15)	–
–	9	–	4	20	–	–	CSCC[C@H](NC(=O)[C@@H](NC(=O)[C@H](CCCCNC(C)=O)NC(=O)[C@@H]1CSSC[C@H](NC(=O)[C@@H](NC(=O)[C@H](CC(=O)O)NC(=O)[C@H](Cc2ccccc2)NC(C)=O)C(C)C)C(=O)N[C@@H](CC(N)=O)C(=O)N[C@@H](Cc2c[nH]c3ccccc23)C(=O)N[C@@H](C(C)C)C(=O)N[C@@H](CCCCNC(=O)COCC(=O)Nc2ccc(CCC(=O)N3CCC3=O)cc2)C(=O)N[C@@H](CC(C)C)C(=O)N2CCC[C@H]2C(=O)N[C@@H](Cc2cnc[nH]2)C(=O)N1)C(C)C)C(N)=O (Ac-FDVCNWVK(X1)LPHCK(Ac)VM-NH2; disulfide 4-12)	–
2	4	–	–	–	100	400	CSCC[C@H](NC(=O)[C@@H](NC(=O)[C@H](CCCCN)NC(=O)[C@@H]1CSSC[C@H](NC(=O)[C@@H](NC(=O)[C@H](CC(=O)O)NC(=O)[C@H](Cc2ccccc2)NC(C)=O)C(C)C)C(=O)N[C@@H](CCCCN)C(=O)N[C@@H](Cc2c[nH]c3ccccc23)C(=O)N[C@@H](C(C)C)C(=O)N[C@@H]([C@@H](C)O)C(=O)N[C@@H](CC(C)C)C(=O)N2CCC[C@H]2C(=O)N[C@@H](Cc2cnc[nH]2)C(=O)N1)C(C)C)C(=O)N[C@@H](CCCCN)C(=O)NC(=O)COCC(=O)Nc1ccc(CCC(=O)N2CCC2=O)cc1 (Ac-FDVCKWVTLPHCKVM[X2]-X3; disulfide 4-12)	inhibition [12]: inactive; inhibition [13]: inactive; IC50 (Placenta growth factor [14]): 150 nM
